From ChEMBL document CHEMBL1201862, “PubChem BioAssay data set” (2004)
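These data come from cells grown in 96-well plates and exposed to compound for 48 hours at five concentrations. GI50 = concentration required for 50% inhibition of growth.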 The source made the active and inactive calls. No stated cut-off is given here; in the data, active = GI50 up to about 1.1 µM and inactive = higher.

Experiments:
Assay in all cases: NCI anticancer screen, dose series, 48 h
HOP-62 = system: HOP-62
SK-OV-3 = system: SK-OV-3
SF-295 = system: SF-295
NCI-H522 = system: NCI-H522
NCI/ADR-RES = system: NCI/ADR-RES
RPMI-8226 = system: RPMI-8226
NCI-H226 = system: NCI-H226
Hs-578T = system: Hs-578T
HCT-116 = system: HCT-116
A498 = system: A498
MDA-MB-231 = system: MDA-MB-231
UO-31 = system: UO-31
SW-620 = system: SW-620
RXF 393 = system: RXF 393
CAKI-1 = system: CAKI-1
Malme-3M = system: Malme-3M
SF-268 = system: SF-268
CCRF-CEM = system: CCRF-CEM
HL-60 = system: HL-60
MOLT-4 = system: MOLT-4

| Compound | GI50 (HOP-62) | GI50 (SK-OV-3) | GI50 (SF-295) | GI50 (NCI-H522) | GI50 (NCI/ADR-RES) | GI50 (RPMI-8226) | GI50 (NCI-H226) | GI50 (Hs-578T) | GI50 (HCT-116) | GI50 (A498) | GI50 (MDA-MB-231) | GI50 (UO-31) | GI50 (SW-620) | GI50 (RXF 393) | GI50 (CAKI-1) | GI50 (Malme-3M) | GI50 (SF-268) | GI50 (CCRF-CEM) | GI50 (HL-60) | GI50 (MOLT-4) |
| --- | --- | --- | --- | --- | --- | --- | --- | --- | --- | --- | --- | --- | --- | --- | --- | --- | --- | --- | --- | --- |
| CC1=CC(C)(C)Nc2ccc(CSc3ccccc3)cc21 | 29.7 µM (inactive) | 31.3 µM (inactive) | 20 µM (inactive) | 16.8 µM (inactive) | 41.9 µM (inactive) | 14.9 µM (inactive) | 48.4 µM (inactive) | 38.3 µM (inactive) | 26.4 µM (inactive) | 24.1 µM (inactive) | 32.9 µM (inactive) | 22.1 µM (inactive) | 23 µM (inactive) | 16.3 µM (inactive) | 36.1 µM (inactive) | 17.9 µM (inactive) | 35.3 µM (inactive) | – | – | – |
| c1ccc2oc(-c3ccc(-c4nc5ccccc5o4)c4c3CC4)nc2c1 | > 100 µM (inactive) | > 100 µM (inactive) | > 100 µM (inactive) | – | > 100 µM (inactive) | > 100 µM (inactive) | > 100 µM (inactive) | > 100 µM (inactive) | > 100 µM (inactive) | > 100 µM (inactive) | > 100 µM (inactive) | > 100 µM (inactive) | > 100 µM (inactive) | > 100 µM (inactive) | > 100 µM (inactive) | > 100 µM (inactive) | > 100 µM (inactive) | > 100 µM (inactive) | > 100 µM (inactive) | > 100 µM (inactive) |
| COc1ccc(CCNC(=O)CCCCCO)cc1OC | > 100 µM (inactive) | > 100 µM (inactive) | > 100 µM (inactive) | > 100 µM (inactive) | > 100 µM (inactive) | > 100 µM (inactive) | > 100 µM (inactive) | > 100 µM (inactive) | > 100 µM (inactive) | > 100 µM (inactive) | > 100 µM (inactive) | > 100 µM (inactive) | > 100 µM (inactive) | > 100 µM (inactive) | > 100 µM (inactive) | – | > 100 µM (inactive) | > 100 µM (inactive) | > 100 µM (inactive) | > 100 µM (inactive) |
| CC(C)(C)NC(NC(C)(C)C)=C(C(Cl)=C(Cl)Cl)[N+](=O)[O-] | > 100 µM (inactive) | > 100 µM (inactive) | > 100 µM (inactive) | – | > 100 µM (inactive) | > 100 µM (inactive) | > 100 µM (inactive) | 29.4 µM (inactive) | > 100 µM (inactive) | > 100 µM (inactive) | > 100 µM (inactive) | 42.7 µM (inactive) | > 100 µM (inactive) | > 100 µM (inactive) | > 100 µM (inactive) | > 100 µM (inactive) | > 100 µM (inactive) | > 100 µM (inactive) | > 100 µM (inactive) | > 100 µM (inactive) |
| N#Cc1sc2c(c1OC(=O)c1ccc(Cl)cc1Cl)c(=O)n(-c1ccccc1)c(=S)n2-c1ccccc1 | 26.4 µM (inactive) | 32.7 µM (inactive) | 28.2 µM (inactive) | 1.12 µM (active) | 16.8 µM (inactive) | 31.7 µM (inactive) | 23.8 µM (inactive) | 36.7 µM (inactive) | 13.4 µM (inactive) | 24.9 µM (inactive) | 22.8 µM (inactive) | 0.13 µM (active) | 24.5 µM (inactive) | 19.8 µM (inactive) | 23.7 µM (inactive) | – | 29.4 µM (inactive) | 4.85 µM (inactive) | 19.6 µM (inactive) | 18.7 µM (inactive) |
| COc1ccc(-n2c(C)nc3ccc(NC4OC(CO)C(O)C(O)C4O)cc3c2=O)cc1 (stereo unspecified) | > 100 µM (inactive) | – | > 100 µM (inactive) | > 100 µM (inactive) | > 100 µM (inactive) | > 100 µM (inactive) | > 100 µM (inactive) | > 100 µM (inactive) | > 100 µM (inactive) | > 100 µM (inactive) | > 100 µM (inactive) | > 100 µM (inactive) | > 100 µM (inactive) | > 100 µM (inactive) | > 100 µM (inactive) | > 100 µM (inactive) | > 100 µM (inactive) | – | > 100 µM (inactive) | > 100 µM (inactive) |
